Assay results published in patent publication US20260248787A9, “MEDICAMENT FOR TREATING CANCER COMPRISING OPTICALLY ACTIVE AZABICYCLO RING DERIVATIVE” (Sumitomo Pharma Co., Ltd., priority 2023, published 2026).
Where two headings read alike, the source gives them in different places.

Test: Phase 1/2 clinical study, plasma pharmacokinetic evaluation
Assay type: in vivo, human
Settings: human, plasma, oral
Procedure: In the present test of the present compound, PK samples have been collected in up to 24 patients dosed in dose groups of 40, 80, 100, and 120 mg BID Arm A, and in dose groups of 40 and 60 mg BID Arm B (Table 6). Large preliminary PK inter-patient variability was observed.
(1) In the present study, PK samples have been collected in up to 42 patients dosed in dose groups of 40, 80, 100, 120, 140 and 200 mg BID Arm A, and in dose groups of 40, 60, 100, and 200 mg BID Arm B (Table 15).
(2) In the present study, PK samples have been collected in patients dosed in dose groups of 40, 80, 100, 120, 140, 200, and 300 mg BID Arm A, and in dose groups of 40, 60, 100, 200, and 300 mg BID Arm B (Table 16).

[1] = 100 mg, 100 mg BID Arm A, C2D1, N=1
[2] = 100 mg, 100 mg BID Arm B, Cycle 1 Day 1, N=4, mean
[3] = 100 mg, 100 mg BID Arm B, Cycle 2 Day 1, N=4, mean
[4] = 100 mg, Cycle 1 Day 1, 100 mg BID Arm A (without azole), N=2, mean
[5] = 100 mg, Cycle 1 Day 1, 100 mg BID Arm B (with azole), N=4, mean
[6] = 100 mg, Cycle 2 Day 1, 100 mg BID Arm A (without azole), N=1
[7] = 100 mg, Cycle 2 Day 1, 100 mg BID Arm B (with azole), N=4, mean
[8] = 100 mg, Table 15 cut-off, 100 mg BID Arm A, Cycle 1 Day 1, N=2, mean
[9] = 100 mg, Table 15 cut-off, 100 mg BID Arm A, Cycle 2 Day 1, N=1
[10] = 120 mg, 120 mg BID Arm A, C1D1, N=6, mean
[11] = 120 mg, 120 mg BID Arm A, C2D1, N=6, mean
[12] = 120 mg, Cycle 1 Day 1, 120 mg BID Arm A (without azole), N=6, mean
[13] = 120 mg, Cycle 2 Day 1, 120 mg BID Arm A (without azole), N=6, mean
[14] = 120 mg, Table 15 cut-off, 120 mg BID Arm A, Cycle 1 Day 1, N=6, mean
[15] = 120 mg, Table 15 cut-off, 120 mg BID Arm A, Cycle 2 Day 1, N=6, mean
[16] = 140 mg, 140 mg BID Arm A, Cycle 1 Day 1, N=6 (incl. two patients with MDS), mean
[17] = 140 mg, 140 mg BID Arm A, Cycle 2 Day 1, N=5 (incl. two patients with MDS), mean
[18] = 140 mg, Cycle 1 Day 1, 140 mg BID Arm A (without azole), N=6 (two MDS patients included, one pt excluded), mean
[19] = 140 mg, Cycle 2 Day 1, 140 mg BID Arm A (without azole), N=5 (two MDS patients included, one pt excluded), mean
[20] = 140 mg, Cycle 2 Day 1, 140 mg BID Arm B (with azole), N=1
[21] = 200 mg, 200 mg BID Arm A, Cycle 1 Day 1, N=4, mean
[22] = 200 mg, 200 mg BID Arm B, Cycle 1 Day 1, N=6, mean
[23] = 200 mg, 200 mg BID Arm B, Cycle 2 Day 1, N=2, mean
[24] = 200 mg, Cycle 1 Day 1, 200 mg BID Arm A (without azole), N=5, mean
[25] = 200 mg, Cycle 1 Day 1, 200 mg BID Arm B (with azole), N=11, mean
[26] = 200 mg, Cycle 2 Day 1, 200 mg BID Arm A (without azole), N=3, mean
[27] = 200 mg, Cycle 2 Day 1, 200 mg BID Arm B (with azole), N=5 (three patients excluded), mean
[28] = 300 mg, Cycle 1 Day 1, 300 mg BID Arm A (without azole), N=4, mean
[29] = 300 mg, Cycle 1 Day 1, 300 mg BID Arm B (with azole), N=3 (one patient pending re-assay), mean
[30] = 300 mg, Cycle 2 Day 1, 300 mg BID Arm A (without azole), N=3, mean
[31] = 300 mg, Cycle 2 Day 1, 300 mg BID Arm B (with azole), N=1 (one patient pending re-assay)

## C=C1C[C@@H]2CC[C@H]1[C@@H](C(=O)N1CCC3(CC1)CN(c1ncncc1Oc1ccc(F)cc1C(=O)N(C(C)C)C(C)C)C3)N2 [the present compound, 5-fluoro-2-[(4-{7-[(1S,3S,4R)-5-methylidene-2-azabicyclo[2.2.2]octane-3-carbonyl]-2,7-diazaspiro[3.5]nonan-2-yl}pyrimidin-5-yl)oxy]-N,N-di(propan-2-yl)benzamide]
100 mg, 100 mg BID Arm A, C1D1, N=2, mean
  Tmax: 3 h
100 mg, 100 mg BID Arm A, C1D1, N=2, mean, read-out: t1/2 (converted)
  half-life: 5.64 h
[1]
  AUC(0-t): 6060 ng·h/mL
  Cmax: 2840 ng/mL
  Tmax: 1 h
100 mg, 100 mg BID Arm A, C2D1, N=1, read-out: t1/2 (converted)
  half-life: 2.88 h
[2]
  AUC(0-t): 5600 ng·h/mL
  Cmax: 1650 ng/mL
[3]
  AUC(0-t): 8350 ng·h/mL
  Cmax: 1810 ng/mL
[4]
  AUC(0-t): 4940 ng·h/mL
  Cmax: 1380 ng/mL
[5]
  AUC(0-t): 5600 ng·h/mL
  Cmax: 1650 ng/mL
[6]
  AUC(0-t): 6060 ng·h/mL
  Cmax: 2840 ng/mL
[7]
  AUC(0-t): 8350 ng·h/mL
  Cmax: 1810 ng/mL
[8]
  AUC(0-t): 4940 ng·h/mL
  Cmax: 1380 ng/mL
[9]
  AUC(0-t): 6060 ng·h/mL
  Cmax: 2840 ng/mL
[10]
  AUC(0-t): 6250 ng·h/mL
  Cmax: 2280 ng/mL
  Tmax: 1.25 h
120 mg, 120 mg BID Arm A, C1D1, N=6, mean, read-out: t1/2 (converted)
  half-life: 2.87 h
[11]
  AUC(0-t): 7860 ng·h/mL
  Cmax: 1980 ng/mL
  Tmax: 1.2 h
120 mg, 120 mg BID Arm A, C2D1, N=6, mean, read-out: t1/2 (converted)
  half-life: 3.26 h
[12]
  AUC(0-t): 6290 ng·h/mL
  Cmax: 2320 ng/mL
[13]
  AUC(0-t): 7970 ng·h/mL
  Cmax: 1980 ng/mL
[14]
  AUC(0-t): 6290 ng·h/mL
  Cmax: 2320 ng/mL
[15]
  AUC(0-t): 7970 ng·h/mL
  Cmax: 1980 ng/mL
[16]
  AUC(0-t): 3570 ng·h/mL
  Cmax: 1480 ng/mL
[17]
  AUC(0-t): 4200 ng·h/mL
  Cmax: 1670 ng/mL
[18]
  AUC(0-t): 3570 ng·h/mL
  Cmax: 1480 ng/mL
140 mg, Cycle 1 Day 1, 140 mg BID Arm B (with azole), N=2, mean
  AUC(0-t): 7000 ng·h/mL
[19]
  AUC(0-t): 4200 ng·h/mL
  Cmax: 1670 ng/mL
[20]
  AUC(0-t): 5520 ng·h/mL
  Cmax: 1770 ng/mL
[21]
  AUC(0-t): 9650 ng·h/mL
  Cmax: 3850 ng/mL
[22]
  AUC(0-t): 21200 ng·h/mL
  Cmax: 6260 ng/mL
[23]
  AUC(0-t): 16700 ng·h/mL
  Cmax: 4360 ng/mL
[24]
  AUC(0-t): 12100 ng·h/mL
  Cmax: 3870 ng/mL
[25]
  AUC(0-t): 21200 ng·h/mL
  Cmax: 5700 ng/mL
[26]
  AUC(0-t): 12000 ng·h/mL
  Cmax: 3850 ng/mL
[27]
  AUC(0-t): 16800 ng·h/mL
  Cmax: 4070 ng/mL
[28]
  AUC(0-t): 15900 ng·h/mL
  Cmax: 6070 ng/mL
[29]
  AUC(0-t): 26000 ng·h/mL
  Cmax: 5970 ng/mL
[30]
  AUC(0-t): 12400 ng·h/mL
  Cmax: 3060 ng/mL
[31]
  AUC(0-t): 20500 ng·h/mL
  Cmax: 4210 ng/mL
Arm A (without azole), FIGS. 4A to 4D cut-off, read-out: Mean t1/2
  half-life: 2 to 6 h
Arm A, 40-120 mg BID, read-out: Mean plasma t1/2
  half-life: 2.82 to 5.64 h
Arm A, 40-200 mg BID (up to 42 patients), read-out: Mean apparent half-life
  half-life: 2 to 5 h
Arm A, 40-300 mg BID, read-out: Mean apparent half-life
  half-life: 2 to 4 h
Arm B (with azole), FIGS. 4A to 4D cut-off, read-out: Mean t1/2
  half-life: 3 to 7 h
Arm B, 40-60 mg BID, read-out: Mean plasma t1/2
  half-life: 2.61 to 7.29 h
Arm B, 40-200 mg BID (up to 42 patients), read-out: Mean apparent half-life
  half-life: 3 to 7 h
Arm B, 40-300 mg BID, read-out: Mean apparent half-life
  half-life: 3 to 7 h
Post dose, Arms A and B, first cut-off
  Tmax: ≤ 2 h
